According to US12486267B2, “Imidazo[1,2-A]pyridine and [1,2,4]triazolo[1,5-A]pyridine derivatives as TLR9 inhibitors for the treatment of fibrosis” (BRISTOL-MYERS SQUIBB COMPANY, priority 2020, dated 2025):

Target: T1, human TLR9 (Homo sapiens, UniProt Q9NR96)
T1 sequence (Q9NR96 26-1032): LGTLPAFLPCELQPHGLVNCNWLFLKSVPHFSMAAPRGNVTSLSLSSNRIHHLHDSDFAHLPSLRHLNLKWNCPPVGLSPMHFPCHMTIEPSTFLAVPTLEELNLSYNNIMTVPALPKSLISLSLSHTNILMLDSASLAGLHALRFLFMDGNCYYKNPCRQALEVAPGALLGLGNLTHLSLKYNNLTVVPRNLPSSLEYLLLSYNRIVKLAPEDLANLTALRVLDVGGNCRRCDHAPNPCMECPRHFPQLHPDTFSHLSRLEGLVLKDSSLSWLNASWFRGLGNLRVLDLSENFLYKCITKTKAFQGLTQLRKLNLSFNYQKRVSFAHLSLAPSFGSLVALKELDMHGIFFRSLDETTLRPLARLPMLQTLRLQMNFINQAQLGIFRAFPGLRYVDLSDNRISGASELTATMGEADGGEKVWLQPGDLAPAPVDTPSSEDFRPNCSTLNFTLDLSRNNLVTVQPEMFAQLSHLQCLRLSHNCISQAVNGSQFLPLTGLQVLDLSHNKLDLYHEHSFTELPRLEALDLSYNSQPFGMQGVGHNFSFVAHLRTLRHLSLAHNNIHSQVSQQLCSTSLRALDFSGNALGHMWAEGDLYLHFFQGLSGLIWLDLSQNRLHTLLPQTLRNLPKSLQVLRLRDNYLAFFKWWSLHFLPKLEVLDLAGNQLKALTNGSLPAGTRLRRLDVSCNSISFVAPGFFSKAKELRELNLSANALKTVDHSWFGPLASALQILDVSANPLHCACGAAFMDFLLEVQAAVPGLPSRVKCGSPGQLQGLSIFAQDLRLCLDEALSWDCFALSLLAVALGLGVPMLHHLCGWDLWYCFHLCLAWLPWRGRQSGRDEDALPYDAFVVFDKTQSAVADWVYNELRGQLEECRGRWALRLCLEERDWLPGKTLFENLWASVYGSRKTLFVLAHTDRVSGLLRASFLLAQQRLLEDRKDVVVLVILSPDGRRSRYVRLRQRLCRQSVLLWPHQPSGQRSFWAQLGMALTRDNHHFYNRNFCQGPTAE
Assay: TLR9 inhibition reporter assay (HEK-Blue cells, SEAP reporter)
Type: cell-based
Settings: HEK-Blue cells overexpressing human TLR9; stimulated with ODN2006 5 nM; 22 hour incubation; SEAP readout
Experimental: TLR7/8/9 Inhibition Reporter Assays
HEK-Blue™-cells (Invivogen) overexpressing human TLR7, TLR8 or TLR9 receptors were used for screening inhibitors of these receptors using an inducible SEAP (secreted embryonic alkaline phosphatase) reporter gene under the control of the […] minimal promoter fused to five NF-κB and AP-1-binding sites. Briefly, cells are seeded into Greiner 384 well plates (15000 cells per well for TLR7, 20,000 for TLR8 and 25,000 for TLR9) and then treated with test compounds in DMSO to yield a final dose response concentration range of 0.05 nM-50 μM. After a 30 minute compound pre-treatment at room temperature, the cells are then stimulated with a TLR7 ligand (gardiquimod at a final concentration of 7.5 μM), TLR8 ligand (R848 at a final concentration of 15.9 μM) or TLR9 ligand (ODN2006 at a final concentration of 5 nM) to activate NF-κB and AP-1 which induce the production of SEAP. After a 22 hour incubation at 37° C., 5% CO2, SEAP levels are determined with the addition of HEK-Blue™ Detection reagent (Invivogen), a cell culture medium that allows for detection of SEAP, according to manufacturer's specifications. The percent inhibition is determined as the % reduction in the HEK-Blue signal present in wells treated with agonist plus DMSO alone compared to wells treated with a known inhibitor.

Row | Structure (SMILES) | IC50 [nM]
1 | COc1ccc(-c2cn3cc(C4CC5CCC(C4)N5C4CCN(CC(C)C)CC4)cc(C)c3n2)cc1OC (single isomer, unassigned) [Example 28, 2-(3,4-dimethoxyphenyl)-6-(8-(1-isobutylpiperidin-4-yl)-8-azabicyclo[3.2.1]octan-3-yl)-8-methylimidazo[1,2-a]pyridine] | 7.9
2 | COc1ccc(-c2cn3cc(C4CC5CCC(C4)N5C4CCN(CC(C)C)CC4)cc(C)c3n2)cc1OC (single isomer, unassigned) [Example 29, 2-(3,4-dimethoxyphenyl)-6-(8-(1-isobutylpiperidin-4-yl)-8-azabicyclo[3.2.1]octan-3-yl)-8-methylimidazo[1,2-a]pyridine] | 10
3 | Cc1cc(C2CCN(C3CC4CCC(C3)N4C(C)C)CC2)cn2cc(-c3ccc(S(C)(=O)=O)cc3)nc12 (single isomer, unassigned) [Example 62, 6-(1-(8-isopropyl-8-azabicyclo[3.2.1]octan-3-yl)piperidin-4-yl)-8-methyl-2-(4-(methylsulfonyl)phenyl)imidazo[1,2-a]pyridine] | 98
4 | CC(C)CN1C2CCC1CC(N1CCC([C@@H]3CCc4nc(-c5ccc(S(C)(=O)=O)cc5)cn4C3)CC1)C2 (single isomer, unassigned) [Example 81] | 9.1
5 | Cc1cc(C2CCN(C3CC4CCC(C3)N4C3CCC3)CC2)cn2cc(-c3ccc(S(C)(=O)=O)cc3)nc12 (single isomer, unassigned) [Example 84, 6-(1-(8-cyclobutyl-8-azabicyclo[3.2.1]octan-3-yl)piperidin-4-yl)-8-methyl-2-(4-(methylsulfonyl)phenyl)imidazo[1,2-a]pyridine] | 21
6 | Cc1cc(C2CCN(C3CC4CCC(C3)N4CC(C)C)CC2)cn2cc(-c3ccc(S(C)(=O)=O)cc3)nc12 (single isomer, unassigned) [Example 85, 6-(1-(8-isobutyl-8-azabicyclo[3.2.1]octan-3-yl)piperidin-4-yl)-8-methyl-2-(4-(methylsulfonyl)phenyl)imidazo[1,2-a]pyridine] | 27
7 | Cc1cc(C2CCN(C3CC4CCC(C3)N4CC3CC3)CC2)cn2cc(-c3ccc(S(C)(=O)=O)cc3)nc12 (single isomer, unassigned) [Example 88, 6-(1-(8-(cyclopropylmethyl)-8-azabicyclo[3.2.1]octan-3-yl)piperidin-4-yl)-8-methyl-2-(4-(methylsulfonyl)phenyl) imidazo[1,2-a]pyridine] | 120
8 | Cc1cc(C2CCN(C3CC4CCC(C3)N4CC3CCC3)CC2)cn2cc(-c3ccc(S(C)(=O)=O)cc3)nc12 (single isomer, unassigned) [Example 90, 6-(1-(8-(cyclobutylmethyl)-8-azabicyclo[3.2.1]octan-3-yl)piperidin-4-yl)-8-methyl-2-(4-(methylsulfonyl)phenyl)imidazo[1,2-a]pyridine] | 104

Now from value to molecule:

Row | IC50 [nM] | Structure (SMILES)
9 | 12 | Cc1cc(C2CCN(C3CC4CCC(C3)N4C3CCC3)CC2)cn2cc(-c3ccc(S(C)(=O)=O)cc3)nc12 (single isomer, unassigned) [Example 83, 6-(1-(8-cyclobutyl-8-azabicyclo[3.2.1]octan-3-yl)piperidin-4-yl)-8-methyl-2-(4-(methylsulfonyl)phenyl)imidazo[1,2-a]pyridine]
10 | 102 | Cc1cc(C2CCN(C3CC4CCC(C3)N4CC(C)C)CC2)cn2cc(-c3ccc(S(C)(=O)=O)cc3)nc12 (single isomer, unassigned) [Example 86, 6-(1-(8-isobutyl-8-azabicyclo[3.2.1]octan-3-yl)piperidin-4-yl)-8-methyl-2-(4-(methylsulfonyl)phenyl)imidazo[1,2-a]pyridine]
11 | 19 | Cc1cc(C2CCN(C3CCN(C4CCC4)CC3)CC2)cn2cc(-c3ccc(S(C)(=O)=O)cc3)nc12 [Example 91, 6-(1′-cyclobutyl-[1,4′-bipiperidin]-4-yl)-8-methyl-2-(4-(methylsulfonyl)phenyl) imidazo[1,2-a]pyridine]
